# From patent US5981517A, “Androstene derivatives” (priority 1997, dated 1999)
# Tests used:
# [1] = in vitro; type: in vitro ADME; settings: rat, lung cytosol
# Protocol: To determine that the compounds of the invention can be stable during the incubation period, the test compounds A, B, C, and D were investigated for their stabilities at the incubation conditions, which are room temperature and 2 hours, for receptor binding studies. The frozen cytosol which was made for the receptor binding study was thawed in a water bath and diluted with 1 part of incubation buffer (10 mM Tris/HCl, 10 mM sodium molybdate, and 2 mM 1,4-dithiothreitol) containing a 15 mM concentration of enzyme inhibitor, diisopropyl fluorophosphate. Portions (560 μL) of the diluted cytosol were added to centrifuge tubes containing 80 μL portions of blank incubation buffer instead of volume of tracer ([^3 H]triamcinolone acetonide) which would be used in the receptor binding study (RBS), 80 μL of solution of a Δ^1 -cortienic acid (0.1 mM) in buffer (the final concentration of Δ^1 -cortienic acid in the incubation medium was […]), and 80 μL of 100,000 nM of concentrations of test compounds in ethanol to give a final concentration of 10,000 nM. This mixture was kept at room temperature for 2 hours. Samples of 0.1 mL were taken at appropriate time intervals (0, 0.5, 1, 1.5, 2 hours) and were mixed with 0.2 mL of acetonitrile containing 5% DMSO. Each mixture was centrifuged and the supernatant were injected in the HPLC.
# Male Sprague-Dawley rats, each weighing 150 to 200 g, were used 6 days after adrenalectomy. Rats were sacrificed by decapitation. Immediately after resection of the lungs, the tissue was frozen in ice. The cytosol was prepared using a slight modification of a previously described method (Dahlberg, 1984); After addition of 6 volumes of ice-cold incubation buffer (10 mM Tris/HCl, 10 mM sodium molybdate, and 2 mM 1,4-dithiothreitol), the tissue was homogenized with the Virtis 45 homogenizer at full speed, for 4 periods of 10 seconds with a 10-second cooling period between each step. The homogenate was centrifuged at 35,000 g for 1 hour at 4° C. in a Beckman ultracentrifuge L8-70M equipped with a T170 rotor. Portions (5 ml) of the cytosol were frozen in liquid nitrogen and stored at -80° C.
# [2] = test system: forearms of a human volunteer; assay: Further human vasoconstriction testing, Method 1; type: in vivo
# Protocol: The mixtures, in 50 μL amounts, were applied to circular patches (8 mm diameter). After evaporation of ethanol, the patches were applied to the forearms of a human volunteer, and covered with a water impervious film for 3 hr. The intensity of vasoconstriction (scale 0-4) was judged at various time intervals after removal of the patches. The grading scale was as follows: 0, normal skin; 1, slight pallor of indistinct outline; 2, pallor with at least two corners outlined; 3, even pallor with a clear outline of the application sites; 4, very intense pallor. The skin tests (2-4 tests on each compound) were performed on the same person.
# [3] = molecular target: T1, rat lung glucocorticoid receptor (Rattus norvegicus, UniProt P06536); assay: Receptor binding studies ([3H]triamcinolone acetonide displacement); settings: further receptor binding studies (Table X); dexamethasone = 100; * mean ± SE of 3-5 results
# T1 construct: Immediately after resection of the lungs, the tissue was frozen in ice; The cytosol was prepared; from tissue; host or cells: lung cytosol of adrenalectomized male Sprague-Dawley rats
# T1 sequence (P06536 1-795): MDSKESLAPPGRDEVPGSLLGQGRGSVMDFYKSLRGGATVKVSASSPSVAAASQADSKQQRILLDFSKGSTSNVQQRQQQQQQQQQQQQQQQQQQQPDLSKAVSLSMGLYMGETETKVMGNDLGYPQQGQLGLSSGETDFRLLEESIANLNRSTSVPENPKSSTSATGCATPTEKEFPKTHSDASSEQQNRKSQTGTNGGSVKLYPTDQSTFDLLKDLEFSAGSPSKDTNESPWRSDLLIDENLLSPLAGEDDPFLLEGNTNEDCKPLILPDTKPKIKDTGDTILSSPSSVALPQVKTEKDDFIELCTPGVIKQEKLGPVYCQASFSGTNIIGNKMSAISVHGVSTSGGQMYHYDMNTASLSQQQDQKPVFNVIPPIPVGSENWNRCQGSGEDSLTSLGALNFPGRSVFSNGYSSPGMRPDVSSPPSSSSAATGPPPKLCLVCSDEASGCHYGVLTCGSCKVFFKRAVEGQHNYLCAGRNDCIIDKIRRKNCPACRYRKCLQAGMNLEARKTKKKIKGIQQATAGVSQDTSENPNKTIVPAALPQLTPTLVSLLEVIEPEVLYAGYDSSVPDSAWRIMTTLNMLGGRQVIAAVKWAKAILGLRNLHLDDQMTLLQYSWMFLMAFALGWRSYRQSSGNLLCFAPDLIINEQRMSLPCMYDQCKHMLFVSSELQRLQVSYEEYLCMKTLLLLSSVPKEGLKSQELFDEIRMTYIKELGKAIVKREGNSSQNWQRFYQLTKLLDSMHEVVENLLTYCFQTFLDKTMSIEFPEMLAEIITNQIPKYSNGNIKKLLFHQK
# Protocol: Male Sprague-Dawley rats, each weighing 150 to 200 g, were used 6 days after adrenalectomy. Rats were sacrificed by decapitation. Immediately after resection of the lungs, the tissue was frozen in ice. […] Portions (5 ml) of the cytosol were frozen in liquid nitrogen and stored at -80° C.
# The cytosol was thawed in a water bath and diluted with 1 part of incubation buffer containing a 15 mM concentration of diisopropyl fluorophosphate. […] After a 2 hour incubation period at room temperature (24° C.), the unbound steroid was removed by addition of a 2% suspension of activated charcoal in incubation buffer (400 μL). The mixture was incubated for 5 minutes at room temperature and then was centrifuged at about 10,000 g for 3 minutes in the microcentrifuge. The radioactivity (cpm) in the supernatant (400 μL) was determined by liquid scintillation counting.
# The data is fitted to the following logistic function:
# B=T-T * C^N /(C^N +IC50^N)+NS,
# where B=CPM in the presence of competitor, T=CPM in the absence of competitor, C=competitor concentration, N=Hill slope factor, and NS=cpm under non-specific binding conditions.
# For the representative compound of the invention B, receptor binding affinity was investigated with and without Δ^1 -cortienic acid in the incubation solution to study the effect of Δ^1 -cortienic acid on the receptor binding.
# Further studies to evaluate the relative receptor binding affinities of compounds of the invention, other compounds of formula (VII) hereinabove and well-known anti-inflammatory steroids were undertaken, using the methods described in the RECEPTOR BINDING STUDIES set forth above. […] For comparison purposes, the following compounds having formula (VII) above were also tested: […]
# [4] = 24 Hours, 1 hour re-occlusion at 20-21 hours, 0.01 mM
# [5] = 24 Hours, 1 hour re-occlusion at 20-21 hours, 0.05 mM
# [6] = 24 Hours, 1 hour re-occlusion at 20-21 hours, 0.1 mM
# [7] = 24 Hours, 1 hour re-occlusion at 20-21 hours, 0.5 mM
Structure (SMILES),remaining at 2 h [1] [%],"Vasoconstriction activity ([2]; 3 Hours, 0.01 mM)","Vasoconstriction activity ([2]; 3 Hours, 0.05 mM)","Vasoconstriction activity ([2]; 3 Hours, 0.1 mM)","Vasoconstriction activity ([2]; 3 Hours, 0.5 mM)","Vasoconstriction activity ([2]; 3 Hours, 1 mM)","Vasoconstriction activity ([2]; 3 Hours, 5 mM)","Vasoconstriction activity ([2]; 20 Hours, 0.01 mM)","Vasoconstriction activity ([2]; 20 Hours, 0.05 mM)","Vasoconstriction activity ([2]; 20 Hours, 0.1 mM)","Vasoconstriction activity ([2]; 20 Hours, 0.5 mM)","Vasoconstriction activity ([2]; 20 Hours, 1 mM)","Vasoconstriction activity ([2]; 20 Hours, 5 mM)","Vasoconstriction activity [2, 4]","Vasoconstriction activity [2, 5]","Vasoconstriction activity [2, 6]","Vasoconstriction activity [2, 7]",RBA [3]
"CCOC(=O)[C@@]1(OC(=O)CC)CC[C@H]2[C@@H]3CCC4=CC(=O)C=C[C@]4(C)[C@H]3[C@@H](O)C[C@@]21C [Compound P, reference compound]",> 90,0,0,0,1,2,3,0,0,0,0,1,1,0,0,1,2,38
"CCOC(=O)[C@@]1(OC(=O)C(C)Cl)CC[C@H]2[C@@H]3CCC4=CC(=O)C=C[C@]4(C)[C@H]3[C@@H](O)C[C@@]21C (stereo partly drawn) [Q, ethyl 17α-(α-chloro)propionyloxy-11β-hydroxyandrosta-1,4-dien-3-one-17β-carboxylate]",> 90,0,0,0,1,1,3,0,0,0,1,1,1,0,0,1,2,88
"CCOC(=O)[C@@]1(OC(=O)CCl)CC[C@H]2[C@@H]3CCC4=CC(=O)C=C[C@]4(C)[C@H]3[C@@H](O)C[C@@]21C [Compound R, ethyl 17α-chloroacetoxy-11β-hydroxyandrosta-1,4-dien-3-one-17β-carboxylate]",30,0,0,0,1,1,1,0,0,0,0,0,0,0,0,0,0,22
